Measured values published in PMC2833271 (Neuropsychopharmacology : official publication of the …, 2009).
Entries after “also recorded” stand apart in the source; their conditions may differ. Like-named read-outs stand apart in the source and are kept apart here.

Assays:
brain MAO-A [1] = biological target: T1, brain MAO-A (Homo sapiens, UniProt P21397); test: Emax model of brain MAO-A inhibition vs plasma CX157 concentration; format: in vivo
T1 sequence (P21397 1-527): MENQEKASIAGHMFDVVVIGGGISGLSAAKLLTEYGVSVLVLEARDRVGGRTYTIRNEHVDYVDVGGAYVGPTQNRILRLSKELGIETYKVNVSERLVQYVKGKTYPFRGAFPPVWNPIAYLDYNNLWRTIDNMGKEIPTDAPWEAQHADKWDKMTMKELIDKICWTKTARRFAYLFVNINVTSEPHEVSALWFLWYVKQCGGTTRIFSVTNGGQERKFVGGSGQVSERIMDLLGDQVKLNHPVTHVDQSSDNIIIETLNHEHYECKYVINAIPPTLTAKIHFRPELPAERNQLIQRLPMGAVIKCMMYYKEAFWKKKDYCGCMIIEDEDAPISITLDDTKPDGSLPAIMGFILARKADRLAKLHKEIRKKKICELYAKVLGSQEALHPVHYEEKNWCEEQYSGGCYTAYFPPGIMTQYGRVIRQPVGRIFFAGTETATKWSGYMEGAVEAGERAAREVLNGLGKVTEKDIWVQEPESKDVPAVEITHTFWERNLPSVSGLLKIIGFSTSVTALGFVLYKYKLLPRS

MAO-A = settings: in human brain; ref data on file, CeNeRx Biopharma, Cary, NC; cited from earlier work
[2] = Adverse events in study subjects; format: in vivo, human; settings: 15 normal men, oral CX157 20-80 mg
[3] = Plasma CX157 concentration and pharmacokinetics; format: in vivo, human; settings: for concentration at 2 h / concentration at 5 h / concentration at 12 h / concentration at 8 h: oral; for Plasma CX157: single subject value
brain MAO-A [4] = biological target: T1, brain MAO-A; test: PET imaging of [11C]clorgyline binding; format: in vivo
brain MAO-A [5] = biological target: T1, brain MAO-A; settings: [11C]harmine PET; ref Bergström et al, 1997; cited from earlier work

## O=S1(=O)c2ccc(F)cc2Oc2cc(OCC(F)(F)F)ccc21 [CX157, 3-fluoro-7-(2,2,2-trifluoroethoxy)phenoxathiin-10,10-dioxide]
Brain MAO-A [1]
  EC50: 0.0554 µM
Brain MAO-A [1]; Emax model fit, all subjects, doses and time points
  n (exponent of sigmoid Emax model): 1.0
Brain MAO-A [1]; read-out: Emax (maximum inhibiting response)
  Emax: 80.7%
MAO-A
  MAO-A inhibiting activity: 3.3 nM
[2]
  overall incidence of AEs: 13.3%
  serious adverse events or deaths: No serious adverse events (AEs) or deaths occurred
[3]; male, human, plasma, 20 mg, Average plasma CX157, single dose 20 mg, n = 2, 2 h
  concentration at 2 h: 18.5 ± 3.3 ng/mL
[3]; male, human, plasma, 20 mg, Average plasma CX157, single dose 20 mg, n = 2, 5 h
  concentration at 5 h: 18.8 ± 1.1 ng/mL
[3]; male, human, plasma, 20 mg, Average plasma CX157, single dose 20 mg, n = 2, 12 h
  concentration at 12 h: 12.4 ± 0.7 ng/mL
[3]; male, human, plasma, 40 mg, Average plasma CX157, multi-dose 40 mg BID, n = 3, 2 h
  concentration at 2 h: 48.3 ± 11.3 ng/mL
[3]; male, human, plasma, 40 mg, Average plasma CX157, multi-dose 40 mg BID, n = 3, 5 h
  concentration at 5 h: 34.1 ± 5.8 ng/mL
[3]; male, human, plasma, 40 mg, Average plasma CX157, multi-dose 40 mg BID, n = 3, 8 h
  concentration at 8 h: 32.2 ± 4.4 ng/mL
[3]; male, human, plasma, 40 mg, Average plasma CX157, multi-dose 40 mg BID, n = 3, 12 h
  concentration at 12 h: 23.1 ± 1.4 ng/mL
[3]; male, human, plasma, 40 mg, Average plasma CX157, single dose 40 mg, n = 3, 2 h
  concentration at 2 h: 54.7 ± 18.5 ng/mL
[3]; male, human, plasma, 40 mg, Average plasma CX157, single dose 40 mg, n = 3, 12 h
  concentration at 12 h: 6.8 ± 1.5 ng/mL
[3]; male, human, plasma, 60 mg, Average plasma CX157, single dose 60 mg, n = 3, 2 h
  concentration at 2 h: 46.8 ± 84.4 ng/mL
[3]; male, human, plasma, 60 mg, Average plasma CX157, single dose 60 mg, n = 3, 5 h
  concentration at 5 h: 31.6 ± 37.4 ng/mL
[3]; male, human, plasma, 60 mg, Average plasma CX157, single dose 60 mg, n = 3, 8 h
  concentration at 8 h: 23.4 ± 8 ng/mL
[3]; male, human, plasma, 60 mg, Average plasma CX157, single dose 60 mg, n = 3, 12 h
  concentration at 12 h: 17.6 ± 6.6 ng/mL
[3]; male, human, plasma, 80 mg, Average plasma CX157, single dose 80 mg, n = 4, 2 h
  concentration at 2 h: 72.3 ± 58.8 ng/mL
[3]; male, human, plasma, 80 mg, Average plasma CX157, single dose 80 mg, n = 4, 5 h
  concentration at 5 h: 48.6 ± 25 ng/mL
[3]; male, human, plasma, 80 mg, Average plasma CX157, single dose 80 mg, n = 4, 8 h
  concentration at 8 h: 30.4 ± 5.2 ng/mL
[3]; male, human, plasma, po
  half-life: 6 ± 3.4 h
[3]; multi-dose 40 mg BID, n = 3, 2 h
  Plasma CX157 range: 24.5 to 45 ng/mL
[3]; multi-dose 40 mg BID, n = 3, 5 h
  Plasma CX157 range: 13.1 to 24.7 ng/mL
[3]; multi-dose 40 mg BID, n = 3, 8 h
  Plasma CX157 range: 10.8 to 19.5 ng/mL
[3]; multi-dose 40 mg BID, n = 3, 12 h
  Plasma CX157 range: 9 to 11 ng/mL
[3]; multi-dose 40 mg BID, 10 h
  Plasma CX157: 6.9 ng/mL
[3]; single dose 20 mg, n = 2, 2 h
  Plasma CX157 range: 3.8 to 8.1 ng/mL
[3]; single dose 20 mg, n = 2, 5 h
  Plasma CX157 range: 1.9 to 3.4 ng/mL
[3]; single dose 20 mg, n = 2, 12 h
  Plasma CX157 range: 0.6 to 1.6 ng/mL
[3]; single dose 40 mg, n = 3, 2 h
  Plasma CX157 range: 18.4 to 55.1 ng/mL
[3]; single dose 40 mg, n = 3, 12 h
  Plasma CX157 range: 0.9 to 3.9 ng/mL
[3]; single dose 40 mg, n = 3, 24 h
  Average plasma CX157: 2.8 ± 1.3 ng/mL
  Plasma CX157 range: 1.8 to 3.7 ng/mL
[3]; single dose 40 mg, 5 h
  Plasma CX157: 8.4 ng/mL
[3]; single dose 40 mg, 8 h
  Plasma CX157: 1.8 ng/mL
[3]; single dose 60 mg, n = 3, 2 h
  Plasma CX157 range: 7.6 to 158 ng/mL
[3]; single dose 60 mg, n = 3, 5 h
  Plasma CX157 range: 3.6 to 67.3 ng/mL
[3]; single dose 60 mg, n = 3, 8 h
  Plasma CX157 range: 3.4 to 14.7 ng/mL
[3]; single dose 60 mg, n = 3, 12 h
  Plasma CX157 range: 1.8 to 11.1 ng/mL
[3]; single dose 80 mg, n = 4, 2 h
  Plasma CX157 range: 70.7 to 183 ng/mL
[3]; single dose 80 mg, n = 4, 5 h
  Plasma CX157 range: 13.5 to 70.2 ng/mL
[3]; single dose 80 mg, n = 4, 8 h
  Plasma CX157 range: 5.7 to 15.4 ng/mL
[3]; single dose 80 mg, 12 h
  Plasma CX157: 16.6 ng/mL
Brain MAO-A [4]; 40 mg CX157, first two subjects
  inhibition of MAO-A: ~ 60%
Brain MAO-A [4]; 60 and 80 mg oral doses, 2 h after administration
  inhibition of [11C]clorgyline binding to brain MAO-A: 47–72%
Brain MAO-A [4]; 24 h post drug (single dose, 40 mg)
  recovery of brain MAO-A activity: recovered completely; also recorded: Complete recovery to baseline values
Brain MAO-A [4]; read-out: % MAO-A inhibition (inhibition of [11C]clorgyline binding, λk3), multi-dose 40 mg BID 7 days, n = 3, 12 h post dose
  inhibition at 40 mg: 23.1 ± 3.7%
Brain MAO-A [4]; read-out: % MAO-A inhibition (inhibition of [11C]clorgyline binding, λk3), multi-dose 40 mg BID, 10 h, single subject value
  inhibition at 40 mg: 27.3%
Brain MAO-A [4]; single dose 20 mg, n = 2, 2 h after CX157
  % MAO-A inhibition (inhibition of [11C]clorgyline binding, λk3): 18.5 ± 10.6%
Brain MAO-A [4]; single dose 20 mg, n = 2, 5 h after CX157
  % MAO-A inhibition (inhibition of [11C]clorgyline binding, λk3): 18.8 ± 6.7%
Brain MAO-A [4]; single dose 20 mg, n = 2, 12 h after CX157
  % MAO-A inhibition (inhibition of [11C]clorgyline binding, λk3): 12.4 ± 10.8%
Brain MAO-A [4]; single dose 40 mg, n = 3, 2 h after CX157
  % MAO-A inhibition (inhibition of [11C]clorgyline binding, λk3): 54.7 ± 8.9%
Brain MAO-A [4]; single dose 40 mg, n = 3, 12 h after CX157
  % MAO-A inhibition (inhibition of [11C]clorgyline binding, λk3): 6.8 ± 14.6%
Brain MAO-A [4]; single dose 40 mg, n = 3, 24 h after CX157
  % MAO-A inhibition (inhibition of [11C]clorgyline binding, λk3): −1.8 ± 0.7%
Brain MAO-A [4]; single dose 40 mg, 5 h after CX157, single subject value
  % MAO-A inhibition (inhibition of [11C]clorgyline binding, λk3): 34.5%
Brain MAO-A [4]; single dose 40 mg, 8 h after CX157, single subject value
  % MAO-A inhibition (inhibition of [11C]clorgyline binding, λk3): 6.5%
Brain MAO-A [4]; single dose 60 mg, n = 3, 5 h after CX157
  % MAO-A inhibition (inhibition of [11C]clorgyline binding, λk3): 31.6 ± 27.4%
Brain MAO-A [4]; single dose 60 mg, n = 3, 8 h after CX157
  % MAO-A inhibition (inhibition of [11C]clorgyline binding, λk3): 23.4 ± 30.0%
Brain MAO-A [4]; single dose 60 mg, n = 3, 12 h after CX157
  % MAO-A inhibition (inhibition of [11C]clorgyline binding, λk3): 17.6 ± 17.9%
Brain MAO-A [4]; single dose 80 mg, n = 4, 2 h after CX157
  % MAO-A inhibition (inhibition of [11C]clorgyline binding, λk3): 72.3 ± 8.7%
Brain MAO-A [4]; single dose 80 mg, n = 4, 5 h after CX157
  % MAO-A inhibition (inhibition of [11C]clorgyline binding, λk3): 48.6 ± 12.1%
Brain MAO-A [4]; single dose 80 mg, n = 4, 8 h after CX157
  % MAO-A inhibition (inhibition of [11C]clorgyline binding, λk3): 30.4 ± 8.9%
Brain MAO-A [4]; single dose 80 mg, 12 h after CX157, single subject value
  % MAO-A inhibition (inhibition of [11C]clorgyline binding, λk3): 43.1%
Brain MAO-A [4]; single doses, all dose groups except 20 mg, 2-h time point
  peak inhibition of [11C]clorgyline binding: 47–72%

## CCS(=O)(=O)Oc1ccc2c(C)c(C)c(=O)oc2c1 [esuprone]
Brain MAO-A [5]
  correlation between plasma drug levels and brain MAO-A inhibition: no correlation observed
